# Measurements: US11707062B2, “Formulation of stearyl alcohol” (PRO FARM GROUP, INC., priority 2017, dated 2023)
# What was measured:
# [1] = Percent light transmittance by spectrophotometer; type: physicochemical; details: depending on the concentration of material applied
# Experimental: FIG. 8 denotes percent light transmission (% T) of wavelengths between 200 and 750 nm. UV-B radiation occurs at 280-315 nm (dashed green lines), while photosynthetically active radiation occurs between 400-700 nm (solid green lines). The rows of symbols correspond to 12 mL/L concentrations of formulated stearyl alcohol (triangles) and two alternate formulations (squares, diamonds). Water (circles) results in 100% light transmittance. To test the hypothesis that stearyl alcohol reduces transmission of light radiation, particularly within the UV-B spectrum, percent (%) transmittance were measured using a spectrophotometer. stearyl alcohol was diluted to 1/100th of the field application rate (6 mL/L active ingredient) for both visible and non-visible UV light spectra. Visible light spectral analysis was conducted using a 96 well plate while UV transparent cuvettes and 96 well plates were utilized to analyze the percent light transmittance at the UV spectrum. For all spectrophotometer light transmittance screenings, both a water reference and plate blank were used to calibrate the ratio of light energy transmitted through the formulation samples to the energy transmitted through the reference blank. Treatments were replicated three times.
# [2] = test system: soybean leaves; assay: Leaf temperature and gas exchange of attached soybean leaves in a field; type: in vivo; details: 1% v/v DI water solution on upper leaf surface; SE±0.31; P-value<0.02, paired t-test
# Excerpt: FIG. 9 denotes a comparison of the temperature depression caused by stearyl alcohol application to leaves. Points represent temperatures measured at 9 time intervals on four pairs of leaves. FIG. 10 denotes a comparison of photosynthetic capacity of treated leaves, control leaves and leaves prior to stearyl alcohol application. Photosynthetic capacity variation is interpreted as a treatment having higher/lower photosynthesis values than the control for the same stomatal conductance To test the hypothesis that stearyl alcohol reduces internal leaf temperatures while not adversely affecting photosynthesis, stearyl alcohol was applied to eight attached soybean leaves selected from plants growing in a field. The leaves were spaced in blocks so that two leaves could be compared to each other as control/treatment pairs. The leaves were placed in fishing line, wood and metal holders that restrained the leaves in an exposed and horizontal orientation (to prevent leaf orientation changes affecting the leaf energy balance and temperature). Leaf temperature was measured with an IR thermometer three times before and six times after application of a 1% v/v DI water solution of stearyl alcohol to the upper leaf surface, applied using a household spray bottle. Full coverage of the leaf surface was achieved and excess water shaken off. Leaves were dry within half an hour. […]
# [3] = test system: tomato plants; assay: Controlled lab bioassay of transpiration under moderate heat stress; type: in vivo
# Experimental: FIG. 11 denotes mean transpiration rates of tomato plants treated with stearyl alcohol at 72 hours after application. Bars represent standard errors. A controlled lab bioassay was run to evaluate the ability of stearyl alcohol to decrease transpiration of tomato plants under moderate heat stress. stearyl alcohol was applied at a 6 mL/L concentration in water to five tomato plants at the 6-8 leaf stage growing in 8.9 cm square pots, using a research track sprayer. Sombrero, a commercially available calcium carbonate plant sunscreen product, was applied as a positive control and deionized water as a negative control. The application rate was equivalent to 150 liters of diluted product per acre. After sealing pots with plastic bags to prevent water loss through evaporation from the soil surface and measuring total pot and plant weight, the plants were placed in randomized complete blocks in a growth chamber set to 26° C. with 50% relative humidity, x 3000 μW/cm2 illumination for 14 hours per day. Sealed pots and plants were again weighed at 24, 48 and 72 hours after application. Differences in weight were attributed to water loss through transpiration. Plant mass was then plotted against time, and the slope of the linear regression was taken to be the rate of water loss in Average surface area of the leaves (cm2) was calculated using a digital leaf area scanner. Mean transpiration rate was then calculated as: Rate=Water Loss Rate (μg/sec)/Total Leaf Area (cm2).
# [4] = test system: wine (Merlot) and table (Princess) grape varieties; assay: Solar radiation damage in Chilean vineyards; type: in vivo; details: 3, 6 or 9 mL/L in 100 L of water; at harvest
# Excerpt: FIG. 13 denotes number of sun-damaged bunches of Merlot grape. Bars represent standard error for total number of damaged bunches. Letters are the same for each category of damage and represent significant differences according to a Tukey test for separation of means with α=0.05.
# FIG. 14 denotes number of sun-damaged bunches of Princesa table grape. Bars represent standard error for number of damaged bunches. Letters represent significant differences in number of damaged bunches according to a Tukey test for separation of means with α=0.05.
# To evaluate for protection from excess or harmful solar radiation, stearyl alcohol was applied by Duarte and Associates in established Chilean vineyards planted with wine (Merlot) and table (Princess) grape varieties. Plants were treated in 2014 with 3, 6 or 9 mL/L in 100 L of water when berries reached 11 mm in diameter and at two week intervals over the subsequent six weeks. Five contiguous vines were sprayed per treatment; treatments were replicated 3 times and arranged in a random complete block design. At harvest, bunches were counted per plant, yields assessed, sugar content measured and solar radiation damage rated.
# [5] = test system: almond; assay: Almond orchard field trial, yield
compound,measurement,setting,value
CCCCCCCCCCCCCCCCCCO [stearyl alcohol],reductions of light in the photosynthetically active radiation spectrum,[1]; 400-700 nm,10-15%
same,reductions of transmitted UV-B radiation,[1]; UV-B 280-315 nm,20-50%
same,apparent depression in leaf temperatures after application,[2],1.5 degree C.
same,mean transpiration rate,"[3]; 6 mL/L stearyl alcohol, 26° C., 50% relative humidity, up to 72 hours after application, untreated control 6.68",5.33 μg/cm2/sec
same,average reductions in leaf temperature,"[3]; tomato plants, growth chamber 26° C.",1.50 (±0.35) ° C.
same,reductions in transpiration,[3]; vs untreated control,about 20%
same,"damaged bunches, table grape (Princess)",[4],fewer damaged bunches
same,"damaged bunches, wine grape (Merlot)",[4],fewer damaged bunches
same,crop safety in pre-harvest field assessments,"[5]; almond orchard, six assessment dates",confirmed the crop safety
same,almond yields,"[5]; stearyl alcohol 6 ml/L three applications, Surround 50 lbs per acre, untreated 2.8 tons/A",3.2 tons/A
